{
  "source": "patent US12577278B2",
  "about": "“KRAS G12V mutant binds to JAK1, inhibitors, pharmaceutical compositions, and methods related thereto” (Emory University, priority 2019, dated 2026)",
  "key": {"[1]": {"molecular_target": "T1, KRAS-G12V-JAK1 interaction (Homo sapiens, UniProt P01116, G12V)", "test": "GST-affinity pull-down assay under endogenous conditions", "format": "binding", "design": "endogenous in cells", "conditions": "FIG. 2F"}, "[2]": {"tested_on": "HLA-A2+ KRAS WT/G12V cancer cells", "test": "anti-NY-ESO-1 CD8+ T cell-mediated killing, CellTiter Blue viability", "format": "cell-based", "conditions": "under T-cell stimulation; FIG. 5A-5F", "procedure": "The lentivirus-transduced HLA-A2+ parental KRAS WT cells, SW48-A2+ and their KRAS G12V knock-in isogenic cells were co-cultured with anti-NY-ESO-1 CD8+ T cells, or treated with RasKi, RasKi-K606E, or in combinations as indicated. The cell viability after treatment was measured using CellTiter Blue™ reagent. The growth inhibition was normalized to the untreated control.\nThe lentivirus-transduced HLA-A2+ patient derived KRAS WT colon cancer cells (SW48-A2+, LIM1215-A2+ and Caco-2-A2+) and KRASG12V colon cancer cells (SW403-A2+, SW480-A2+ and SW620-A2+) were co-cultured with anti-NY-ESO-1 CD8+ T cells, or treated with RasKi, RasKi-K606E, or in combinations as indicated. The cell viability after treatment was measured using CellTiter Blue™ reagent. The growth inhibition was normalized to the untreated control.\nThe G12V isogenic cells (SW48G12V-A2+, LIM1215G12V-A2+ and H838G12V-A2+) and were co-cultured with anti-NY-ESO-1 CD8+ T cells and treated with RasKi, or in addition with JAK inhibitor (JAKi) or IFNγ receptor antagonist (IFNγRa) as indicated. The cell viability after treatment was measured using CellTiter Blue™ reagent. The growth inhibition was normalized to the untreated control. Each dot represents an individual cell line.\nA gene-engineered CD8+ T cell was produced to specifically target an antigen expressed in an HLA-class I-restricted manner. […]"}, "[3]": {"tested_on": "IFN-γ stimulated STAT1 transcription", "test": "STAT1 transcription dual-luciferase assay in HEK293T cells", "format": "cell-based", "conditions": "JAK1 and KRAS-G12V co-expressed with RasKi, 1 ng/ml IFN-γ 18 hours, FIG. 3A", "procedure": "STAT1 transcriptional activity was tested in HEK293T cells with a dual-luciferase assay. Luciferase activity was measured upon co-expression of JAK1 and KRAS WT, G12V, or G12V with 8-mer. Fold of Control (FOC) with IFN-γ stimulation was calculated comparing to samples without IFN-γ stimulation. Cells were treated with 1 ng/ml IFN-γ for 18 hours after 24 hours of transfection. Dual-luciferase assays were performed, and relative luciferase activity was measured normalized to Renilla luciferase control."}, "JAK-STAT pathway [4]": {"tested_on": "JAK-STAT pathway", "test": "IFN-γ stimulated signaling under endogenous conditions in SW48 KRAS isogenic cell lines (luciferase, Western blot, RT-qPCR)", "format": "cell-based", "conditions": "SW48 G12V cells, IFN-γ 1 ng/ml 18 hours, FIG. 3E", "procedure": "FOC (Fold of control) of STAT1 transcriptional activity was calculated in SW48 (KRAS isogenic colon cancer) WT and G12V cell lines with IFN-γ stimulation comparing to that without IFN-γ stimulation. RasKi was transduced into G12V cells by lentivirus. Cells were treated with IFN-γ (1 ng/ml) for 18 hours after 24 hours of transduction. Dual-luciferase assays were performed, and relative luciferase activity was measured, normalized to Renilla luciferase control.\nWestern Blot was performed to detect changes in the JAK-STAT pathway in SW48 cell lines (KRAS isogenic colon cancer with G12V), with or without IFN-γ (1 ng/ml) for 30 minutes. FOC bar graphs show STAT1/3 phosphorylation, IRF1 and TAP1 expression in three groups after IFN-γ stimulation comparing to basal level.\nExpression of TAP1, IRF1, PD-L1 mRNA was normalized to GAPDH in SW48 cell lines as detected using RT-qPCR (reverse transcription-quantitative polymerase chain reaction). Cells were treated with IFN-γ (1 ng/ml) for 18 hours."}, "[5]": {"molecular_target": "T1, KRAS-G12V-JAK1 interaction", "test": "TR-FRET assay of the KRAS-G12V/JAK1 interaction in HEK293T lysate", "format": "binding", "conditions": "FIG. 2B, 2D", "procedure": "TR-FRET titration assay was performed with HEK293T lysate that had been co-transfected with His-KRAS-G12V and Flag-JAK1. TR-FRET signals were recorded upon treatment with the synthetic peptide 8-mer (RasKi) or the 9-mer control (0 to 50 μM).\nCell lysate from HEK293T cells co-expressing GST-KRAS-G12V and Venus-Flag-JAK1 was treated with the synthetic peptide 8-mer WT ([…], SEQ ID NO: 1) or an 8-mer with K606E mutation. A panel of mutations in 8-mer (5 μM) were tested including M603A ([…], SEQ ID NO: 2)."}, "[6]": {"test": "cell permeability of the peptide", "format": "cell-based"}, "[7]": {"molecular_target": "T1, KRAS-G12V-JAK1 interaction", "test": "GST-affinity pull-down assay", "format": "binding"}, "JAK-STAT pathway [8]": {"tested_on": "JAK-STAT pathway", "test": "Western blot of JAK-STAT pathway signaling in HEK293T cells", "format": "cell-based", "conditions": "HEK293T with KRAS-G12V, FIG. 3B", "procedure": "Western Blot was performed to detect the JAK-STAT pathway signaling change in HEK293T cells with overexpressed JAK1 along with KRAS-WT, G12V, or G12V with 8-mer, with or without IFN-γ stimulation (1 ng/ml, 30 minutes). FOC bar graphs show the levels of phosphorylated STAT1 and STAT3 phosphorylation, and the expression of IRF1 and TAP1 after IFN-γ stimulation in comparison to that without stimulation."}, "[9]": {"tested_on": "KRAS isogenic cell lines SW48, LIM1215, H838", "test": "NK92 cell-induced death of KRAS-WT and G12V isogenic cells", "format": "cell-based", "conditions": "FIG. 4C", "text": "Dose-dependent killing curves of RasKi/8-mer peptide are shown for KRAS WT and G12V isogenic SW48, LIM1215, H838 cell lines with or without NK92 cell stimulation from cell viability readouts.\nRasKi dose-dependent cell death curves were established for KRAS isogenic cell lines treated with JAK1 inhibitor or IFNγ-receptor antagonist in response to NK92 cell stimulation. Bar graphs show integrated results from area under curve (AUC) data of each treatment condition."}, "[10]": {"tested_on": "KRAS isogenic cell lines SW48, LIM1215, H838", "test": "IFNγ-induced cell death in KRAS-WT and G12V isogenic cells", "format": "cell-based", "conditions": "FIG. 4A; for cell killing without IFNγ: no IFNγ", "text": "Bar graphs show the cell death of three pairs of KRAS isogenic cell lines SW48, LIM1215, H838 under different treatment conditions.\nBar graphs show cell death in three KRAS isogenic G12V cell lines in response to IFNγ stimulation and 8-mer peptide, with or without treatment with a JAK1 inhibitor or an IFNγ-receptor antagonist."}},
  "note": "Where a SMILES comes first, the peptide text is derived from it.",
  "data": [
    {"smiles": "CSCC[C@H](N)C(=O)N[C@@H](CC(=O)O)C(=O)N[C@@H](Cc1ccc(O)cc1)C(=O)N[C@@H](CCCCN)C(=O)N[C@@H](CC(=O)O)C(=O)N[C@@H](CC(=O)O)C(=O)N[C@@H](CCC(=O)O)C(=O)NCC(=O)O", "note": "[RasKi] (H-MDYKDDEG-OH; N-terminus and C-terminus assumed)", "values": [
      {"measurement": "disruption of the KRAS-G12V/JAK1 interaction at endogenous level", "setting": "[1]", "value": "effectively disrupt the interaction"},
      {"measurement": "T-cell killing in G12V cells", "setting": "[2]", "value": "enhanced T-cell killing"},
      {"measurement": "STAT1 transcriptional activity upon IFNγ treatment", "setting": "[3]", "value": "completely reversed the KRAS-G12V effect"},
      {"measurement": "expression of mRNAs for IRF1, TAP1, and PD-L1", "setting": "JAK-STAT pathway [4]", "value": "increased"},
      {"measurement": "disruption of the JAK1/KRAS-G12V interaction", "setting": "[5]", "value": "effectively disrupt"},
      {"measurement": "cell permeability", "setting": "[6]", "value": "cell permeable"},
      {"measurement": "competition with JAK1 full length for binding to KRAS-G12V", "setting": "[7]; GST pull-down, FIG. 2C, 2E", "value": "can compete"},
      {"measurement": "binding to KRAS-G12V", "setting": "[7]; JAK1 truncation mapping", "value": "sufficient for KRAS-G12V binding"},
      {"measurement": "STAT1/3 phosphorylation", "setting": "JAK-STAT pathway [8]; IFN-γ 1 ng/ml, 30 minutes", "value": "increased"},
      {"measurement": "expression of IRF1 and TAP1 proteins", "setting": "JAK-STAT pathway [8]; IFN-γ stimulation", "value": "increased"},
      {"measurement": "killing of cells with WT KRAS together with NK92 cells", "setting": "[9]; KRAS WT cells, NK92 co-culture", "value": "but not cells with WT KRAS"},
      {"measurement": "killing of cancer cells with KRAS-G12V together with NK92 cells", "setting": "[9]; KRAS-G12V cells, NK92 co-culture", "value": "synergized with NK92 cells to induce dose-dependent killing"},
      {"measurement": "viability of cancer cells, peptide per se", "setting": "[9]; WT or G12V cells, without NK92 cells", "value": "had no effect"},
      {"measurement": "cell killing without IFNγ", "setting": "[10]", "value": "no difference"},
      {"measurement": "cell killing without IFNγ", "setting": "[10]; listed as 8-mer", "value": "No cell killing effect"},
      {"measurement": "IFNγ-induced killing effect in cells with KRAS-G12V", "setting": "[10]; with IFNγ, compared to KRAS-WT cells", "value": "drastically increased"}
    ]}
  ]
}
